What was measured:
[1] = Stability analysis (storage, CorA content by HPLC-DAD); assay type: physicochemical
Description: The stability of the spray dried amorphous formulation of corallopyronin A embedded in polyvinylpyrrolidone was analyzed after storing samples in drying cabinets at 25° C./60% relative humidity (RH) and under accelerated conditions at 40° C./75% RH for 7, 14, 28 days and 3 months. The samples were stored in closed twist-off glass vials under nitrogen and in the presence of silica desiccant. The content was analyzed by High-Performance Liquid Chromatography with Diode-Array Detection (HPLC-DAD). The samples were, therefore, dissolved in acetonitrile (Bernd Kraft GmbH, Duisburg). The HPLC measurements were performed on a Waters Alliance e2695 separation module connected to a waters 2998 PDA detector. A waters XBridge® Shield RP18, 3.5 μm, 2.1×100 mm, 130 A column was used. For the gradient method starting from 70% A/30% B to 20% A/80% B stepwise within 30 min, the mobile phases A (acetonitrile/water (Bernd Kraft GmbH, Duisburg) 5/95 with 5 mM ammonium acetate (Merck KGaA, Darmstadt) and 40 μL acetic acid (Sigma-Aldrich Chemie GmbH, Steinheim) per Liter) and B (acetonitrile/water 95/5 with 5 mM ammonium acetate and 40 μL acetic acid per liter) enabled to quantitate corallopyronin A precisely at 300 nm at a flow rate of 0.3 mL/min and a column temperature of 30° C. The samples were quantitated via external reference standard. The content of the corallopyronin A reference material was analyzed by ^1H-NMR. The following table 2 summarizes the results of the stability analysis.

[2] = Solubility of corallopyronin A in ethanol; assay type: physicochemical
[3] = Biphasic dissolution test (BiPHa+); assay type: physicochemical; conditions: organic phase 1-decanol
Source text: To simulate the gastrointestinal properties to obtain in vivo predictive results, the pH-profile, bile salt concentration and gastrointestinal passage time were adjusted in the aqueous phase to mimic human gut conditions. […] An organic phase of 1-decanol above the aqueous phase imitated the fraction absorbed from the gut. As a test model, the profile of a person without prior food intake was chosen. Therefore, FaSSIF-V2 medium, which represents the bile salts concentration of a fasted human was used. […] To generate an in-situ biorelevant aqueous medium for the fasted state, biorelevant surfactants, namely sodium-taurocholate (3 mM) and lecithin (0.2 mM), were added.
Prior to the start of the experiments, both phases, 1-decanol and the acidic aqueous phase, were saturated with each other.
After 30 min FaSSIF-V2 concentrate (sodium-taurocholate and lecithin) was added simultaneously to the addition of citrate-phosphate buffer (tri-potassium phosphate and potassium citrate) resulting in a first pH-shift from pH 1 to pH 5.5, simulating the duodenum. […] The adjusted buffers were titrated by 0.1 M NaOH and 0.1 M HCl (pH 5.5-6.8). The whole dissolution took 4.5 hours.

[4] = Pharmacokinetic analysis in vivo in BALB/c mice; design: species or system BALB/c female mice; conditions: PO, Example 13, compared to IV set to 100%
Description: Pharmacokinetic analysis was performed in vivo in fed BALB/c female mice (n=4) (Study DZIF11). The solid formulation was suspended right before administration in PBS (phosphate buffered saline; pH=7.4) and was administered via gavage (36 mg/kg CorA, 10 mL/kg). Blood samples from the vena facialis were collected after 5, 10, 15, 30, 180, and 480 min. The samples were centrifuges for 10 min at 4° C. and 15000 g. The generated plasma was mixed in a ration of 1:3 with ice-cold acetonitrile (Bernd Kraft GmbH, Duisburg). The mixture was vortexed for 10 sec and centrifuged for 25 min at 4° C. and 11600 g. […] For the gradient method starting from 70% A/30% B to 20% A/80% B stepwise within 30 min, the mobile phases A (acetonitrile/water (Bernd Kraft GmbH, Duisburg) 5/95 with 5 mM ammonium acetate (Merck KGaA, Darmstadt) and 40 μL acetic acid (Sigma-Aldrich Chemie GmbH, Steinheim) per Liter) and B (acetonitrile/water 95/5 with 5 mM ammonium acetate and 40 μL acetic acid per Liter) enabled to quantitate corallopyronin A precisely at 300 nm at a flow rate of 0.3 mL/min and a column temperature of 30° C. The samples were quantitated via external reference standard. The content of the corallopyronin A reference material was analyzed by ^1H-NMR.
Plasma concentration-time profiles were generated and pharmacokinetic parameters calculated. […]

methyl N-[(E)-5-[6-hydroxy-5-[(2E,4E,9Z,13E)-8-hydroxy-2,5,9-trimethylpentadeca-2,4,9,13-tetraenoyl]-4-oxopyran-2-yl]hex-1-enyl]carbamate [CorA]
CorA Content ([1]; 3 months, 25° C., 60% RH, listed as Corallopyronin A): 39% | CorA Content ([1]; 3 months, 25° C., 60% RH, listed as corallopyronin A): below 40% | CorA Content ([1]; 3 months, 40° C., 75% RH, listed as Corallopyronin A): 6% | CorA Content ([1]; 3 months, 40° C., 75% RH, listed as corallopyronin A): below 10% | CorA Content ([1]; 7 days, 25° C., 60% RH, listed as Corallopyronin A): 85% | CorA Content ([1]; 7 days, 25° C., 60% RH, listed as corallopyronin A): below 90% | CorA Content ([1]; 7 days, 40° C., 75% RH, listed as Corallopyronin A): 47% | CorA Content ([1]; 7 days, 40° C., 75% RH, listed as corallopyronin A): below 50% | CorA Content ([1]; 14 days, 25° C., 60% RH): 76% | CorA Content ([1]; 14 days, 40° C., 75% RH): 31% | CorA Content ([1]; 28 days, 25° C., 60% RH): 63% | CorA Content ([1]; 28 days, 40° C., 75% RH): 17% | CorA Content ([1]; storage duration 0): 99% | amount that can be dissolved in ethanol [2]: 100 mg/mL | predicted absorption ([3]; FaSSIF-V2 fasted human, pH 1 to 5.5 to 6.8, 4.5 hours, about 10 mg CorA): 7.7% | Maximum Partitioned Drug in the Organic Phase (%) ([3]; fasted human gut conditions, 4.5 h): 8% | Absolute Bioavailability [4]: 11%

Reference: patent US20230181522A1, “SOLID AND LIQUISOLID FORMULATIONS OF CORALLOPYRONIN A” (RHEINISCHE FRIEDRICH-WILHELMS-UNIVERSITÄT BONN, priority 2020, published 2023)
